Key:
[1] = Water solubility (qualitative statement); assay type: physicochemical
Text: Ready-to-use bisacodyl preparations have a short shelf-life (i.e., less than 18 months), can experience settling, and result in waste (e.g., a significant portion of the drug remains in the package). There is a need in the art for a ready-to-use bisacodyl preparation with a longer shelf life and less wasteful apparatus for delivery into the colon.

[2] = Text: The molecular formula for bisacodyl is (C22H19NO4), and the molecular weight is 361.39 gram/mole.
[3] = cited from earlier work

water solubility [1] | aqueous molar solubility [2] [µM] | SMILES | time to have an effect ([3]; administered orally, 5-10 milligrams) [h] | time in which usually effective ([3]; administered rectally in suppository form, 10 mg) [min]
poor water solubility |  | Oc1ccc(C(c2ccc(O)cc2)c2ccccn2)cc1 [desacetyl bisacodyl] |  | 
poor water solubility | 3.4 | CC(=O)Oc1ccc(C(c2ccc(OC(C)=O)cc2)c2ccccn2)cc1 [Bisacodyl, 4,4′-(pyridin-2-ylmethylene)bis(4,1-phenylene) diacetate] | 6 to 12 | 15 to 60
